{
  "source": "patent US20220087983A1",
  "about": "“ACTIVATING PYRUVATE KINASE R” (FORMA Therapeutics, Inc., priority 2020, published 2022)",
  "key": {"[1]": {"system": "H295R adreno-cortical carcinoma cell line", "assay": "Cell viability (MTT Kit)", "format": "cell-based", "details": "at 200 μM", "procedure": "To assess potential effects on steroidogenesis, Compound 1 was screened for steroid modulation in vitro using the H295R adreno-cortical carcinoma cell line (at 200 to 0.0002 μM) and in an assay to monitor cell viability (MTT Kit). Compound 1 indicated steroid modulation potential (% over vehicle) only at 200 μM, the top concentration tested, with 100% cellular viability at concentrations≤20 μM (90% viability at 200 μM)."}, "[2]": {"assay": "Phase 1: safety, adverse events in healthy volunteers", "format": "in vivo, human", "procedure": "(§1) In this study, SAD/MAD cohorts are randomized (3 to 1) to receive Compound 1 or placebo (P). Compound 1 was evaluated first in 4 healthy SAD cohorts and 4 healthy MAD (14-day dosing period) cohorts. Based on the safety, and PK/PD profile from HS, Compound 1 is then evaluated in 1 SCD SAD cohort and 2 SCD MAD cohorts. Specifically, based on the safety and pharmacokinetic/pharmacodynamics (PK/PD) profile in healthy volunteer studies, Compound 1 is evaluated in patients (pts) with SCD, first in a single dose (SD or SAD) cohort and then in multiple-dose (MD or MAD) cohorts (14-day and 12-week). Safety assessments include AEs, vital signs, ECGs and laboratory parameters. PK/PD blood sampling was performed on Day 1 (SAD/MAD) and Day 14 (MAD) and up to 72 h after the last dose and at the end-of-study visit. PD parameters included 2,3-DPG, ATP, and p50 in all cohorts with additional PD studies (including oxygen scan) performed only in the SCD cohorts. PD parameters included 2,3-DPG, ATP, p50, RBC deformability with controlled deoxygenation and reoxygenation (Lorrca® oxygen scan) and varying osmolality (Lorrca® osmoscan)). To maintain study blind, pt identifiers were removed when needed.\nPrimary Outcome Measures: • 1. Incidence, frequency, and severity of adverse events (AEs) per CTCAE v5.0 of a single ascending dose and multiple ascending doses of Compound 1 in adult healthy volunteers and SCD patients. Incidence of abnormal laboratory test results (clinical chemistry, endocrine hematology, urinalysis). Change from baseline in vital signs (blood pressure, respiratory rate, heart rate, and oral temperature). […] Area under the plasma concentration-time curve from time zero until last quantifiable time point (AUC0-last) • [Time Frame: Up to 3 weeks of testing] • 6. […]\nAmong the TEAEs reported in Table 13, TEAEs of grade 2 or less related to Compound 1 in the SAD cohorts included headache (n=1) and transient ventricular tachycardia (n=1), each in a different subject. […] The subject's back-up sample was re-assessed independently, and no lipase elevation was detected."}, "2,3-DPG blood levels": {"system": "2,3-DPG blood levels", "assay": "Phase 1: blood 2,3-DPG levels in healthy volunteers (LC-MS/MS)", "format": "in vivo, human", "details": "for Mean maximum percent change from baseline in 2,3-DPG: all doses and timepoints", "procedure": "as §1\nIn the SAD cohorts, the subjects' blood 2,3-DPG levels were measured periodically after dosing by a qualified LC-MS/MS method for the quantitation of 2,3-DPG in blood. Decreased 2,3-DPG blood levels were observed 6 hours following a single dose of Compound 1 at all dose levels (earlier timepoints were not collected). Maximum decreases in 2,3-DPG levels generally occurred ˜24 hours after the first dose with the reduction sustained ˜48-72 hr postdose. Table 15 reports the median percentage change in 2,3-DPG blood levels, relative to baseline, measured over time in healthy volunteers after a single dose of Compound 1 (200 mg, 400 mg, 700 mg, or 1000 mg) or placebo. Table 16 reports the mean percentage change in 2,3-DPG blood levels, relative to baseline, measured over time in healthy volunteers after a single dose of Compound 1 (200 mg, 400 mg, 700 mg, or 1000 mg). Accordingly, the median and mean reduction in the concentration of 2,3-DPG, relative to baseline, was at least about 30% at all dose levels tested 24 hours after administration of the single dose.\nIn the MAD cohorts, the subjects' blood 2,3-DPG levels were measured periodically after dosing by a qualified LC-MS/MS method for the quantitation of 2,3-DPG in blood. The maximum decrease in 2,3-DPG on Day 14 was 55% from baseline (median). […] Table 18A reports the median percentage change in 2,3-DPG blood levels, relative to baseline, measured over time after the first dose on days 1 and 14 in healthy volunteers who received daily doses of Compound 1 (100 mg BID, 200 mg BID, or 300 mg BID) or placebo for 14 days. Table 18B reports the mean percentage change in 2,3-DPG blood levels, relative to baseline, measured over time after the first dose on days 1 and 14 in healthy volunteers who received daily doses of Compound 1 (100 mg BID, 200 mg BID, 300 mg BID, or 400 mg QD) for 14 days. Accordingly, the median and mean reduction in the concentration of 2,3-DPG, relative to baseline, was at least about 25% at all dose levels tested 24 hours after administration of the first dose on day 1 and at least about 40% at all dose levels tested 24 hours after administration of the first dose on day 14.\nThe following procedures are employed for the analysis of ATP and 2,3-DPG in human whole blood K2EDTA using a protein precipitation extraction procedure and analysis by LC-MS/MS.\nThe following procedures are used for sample extraction prior to analysis via LC-MS/MS. 15.0 μL of the calibration standards, quality controls, matrix blanks, and samples are aliquoted into a 96-well plate. 50.0 μL of the internal standard spiking solution is added to all samples on the plate, with the exception of the matrix blank samples; 50.0 μL of water is added to the matrix blank samples. […]"}},
  "data": [
    {"molecule": "O=C([C@H](CO)c1ccccc1)N1CC2=C(C1)CN(S(=O)(=O)c1cnc3c(c1)OCCO3)C2", "note": "(single isomer, unassigned) [Compound 1]", "values": [
      {"measurement": "cellular viability", "setting": "[1]", "value": 90, "unit": "%"},
      {"measurement": "Grade 1 headache incidence", "setting": "[2]; HS receiving 14 days", "value": 28, "unit": "%"},
      {"measurement": "Grade 1 headache incidence", "setting": "[2]; HS receiving a single dose", "value": 4, "unit": "%"},
      {"measurement": "serious adverse events or AEs leading to withdrawal", "setting": "[2]; HV SAD and MAD cohorts", "value": "No serious adverse events (SAEs) or AEs leading to withdrawal"},
      {"measurement": "maximum decrease in 2,3-DPG on Day 14 from baseline (median)", "setting": "2,3-DPG blood levels; HV MAD cohorts", "value": 55, "unit": "%"},
      {"measurement": "median and mean reduction of 2,3-DPG relative to baseline", "setting": "2,3-DPG blood levels; HV MAD, all dose levels, 24 hours after first dose on day 1", "value": "at least 25%"},
      {"measurement": "median and mean reduction of 2,3-DPG relative to baseline", "setting": "2,3-DPG blood levels; HV MAD, all dose levels, 24 hours after first dose on day 14", "value": "at least 40%"},
      {"measurement": "Mean maximum percent change from baseline in 2,3-DPG", "setting": "2,3-DPG blood levels; HV MAD, N = 36", "value": "−56.3", "unit": "%"},
      {"measurement": "Mean maximum percent change from baseline in 2,3-DPG", "setting": "2,3-DPG blood levels; HV SAD, N = 24", "value": "−46.8", "unit": "%"},
      {"measurement": "median and mean reduction of 2,3-DPG relative to baseline", "setting": "2,3-DPG blood levels; HV, all single dose levels, 24 hours after dose", "value": "at least 30%"},
      {"measurement": "lag of maximum 2,3-DPG decrease behind maximum plasma concentration", "setting": "2,3-DPG blood levels; HV, single 200-1000 mg dose", "value": "about 24 hours"},
      {"measurement": "Median percentage change in 2,3-DPG levels", "setting": "2,3-DPG blood levels; HV, single dose 200 mg, 0 h after dose", "value": 0.0, "unit": "%"},
      {"measurement": "Median percentage change in 2,3-DPG levels", "setting": "2,3-DPG blood levels; HV, single dose 200 mg, 8 h after dose", "value": "−17", "unit": "%"},
      {"measurement": "Median percentage change in 2,3-DPG levels", "setting": "2,3-DPG blood levels; HV, single dose 200 mg, 48 h after dose", "value": "−29", "unit": "%"},
      {"measurement": "Median percentage change in 2,3-DPG levels", "setting": "2,3-DPG blood levels; HV, single dose 400 mg, 0 h after dose", "value": 0.0, "unit": "%"},
      {"measurement": "Median percentage change in 2,3-DPG levels", "setting": "2,3-DPG blood levels; HV, single dose 400 mg, 8 h after dose", "value": "−29", "unit": "%"},
      {"measurement": "Median percentage change in 2,3-DPG levels", "setting": "2,3-DPG blood levels; HV, single dose 400 mg, 72 h after dose", "value": "−30", "unit": "%"},
      {"measurement": "Median percentage change in 2,3-DPG levels", "setting": "2,3-DPG blood levels; HV, single dose 700 mg, 0 h after dose", "value": 0.0, "unit": "%"},
      {"measurement": "Median percentage change in 2,3-DPG levels", "setting": "2,3-DPG blood levels; HV, single dose 700 mg, 6 h after dose", "value": "−29", "unit": "%"},
      {"measurement": "Median percentage change in 2,3-DPG levels", "setting": "2,3-DPG blood levels; HV, single dose 700 mg, 16 h after dose", "value": "−46", "unit": "%"},
      {"measurement": "Median percentage change in 2,3-DPG levels", "setting": "2,3-DPG blood levels; HV, single dose 700 mg, 36 h after dose", "value": "−46", "unit": "%"},
      {"measurement": "Median percentage change in 2,3-DPG levels", "setting": "2,3-DPG blood levels; HV, single dose 1000 mg, 36 h after dose", "value": "−47", "unit": "%"}
    ]}
  ]
}
